Drawing on patent US11168079B2, “Alkene compounds as farnesoid x receptor modulators” (BRISTOL-MYERS SQUIBB COMPANY, priority 2017, dated 2021), this text covers EC50 for 55 compounds.

One test addresses T1, human FXR (Homo sapiens, UniProt Q96RI1).
T1 sequence (Q96RI1 262-486 limits assumed): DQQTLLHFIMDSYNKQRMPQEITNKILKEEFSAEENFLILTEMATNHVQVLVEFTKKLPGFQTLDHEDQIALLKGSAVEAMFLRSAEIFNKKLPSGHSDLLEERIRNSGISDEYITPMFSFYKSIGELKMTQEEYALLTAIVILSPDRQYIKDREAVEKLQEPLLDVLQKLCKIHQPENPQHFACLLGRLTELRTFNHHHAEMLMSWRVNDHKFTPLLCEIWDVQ
In words: transient human FXR/Gal4-luciferase reporter assay (HLE GAL-FXR). The settings on record: FXR EC50 (nM), Gal4-hFXR fusion reporter, HEK293 cells; Table 1.
`O=C(O)Cc1ccnc(N2CCC(/C=C/c3c(-c4c(Cl)cccc4Cl)noc3C3CC3)CC2)c1` [Example 40] had an EC50 of 947 nM.
Same read-out and setting: the value for `Cn1nc(C(=O)O)c2ccc(N3CCC(/C=C/c4c(-c5c(Cl)cccc5Cl)noc4C4CC4)CC3)cc21` [Example 41] was 236 nM; that for `O=C(O)c1ccc(N2CCC(/C=C/c3c(-c4ccccc4OC(F)(F)F)noc3C3CC3)CC2)nc1` [Example 42] was 512 nM.
`O=C(O)c1cc(F)c2nc(N3CCC(/C=C/c4c(-c5ccccc5OC(F)(F)F)noc4C4CC4)CC3)sc2c1` [Example 43] displayed an EC50 of 42 nM.
For `O=C(O)c1cc(C(F)(F)F)c2cc(N3CCC(/C=C/c4c(-c5ccccc5C(F)(F)F)noc4C4CC4)CC3)ccc2n1` [Example 45], the response was half-maximal at 12 nM (EC50).
With `O=C(O)c1ccc2nc(N3CC4C(/C=C/c5c(-c6c(Cl)cccc6Cl)noc5C5CC5)C4C3)sc2c1` (stereo not shown) [Example 46], the EC50 stood at 117 nM. Compared with the last compound, the EC50 is about 9.8-fold higher.
Same read-out and setting: the value for `O=C(O)c1ccc(N2CC3C(/C=C/c4c(-c5c(Cl)cccc5Cl)noc4C4CC4)C3C2)cc1` (stereo not shown) [Example 47, (E)-4-(6-(2-(5-cyclopropyl-3-(2,6-dichlorophenyl)isoxazol-4-yl)vinyl)-3-azabicyclo[3.1.0]hexan-3-yl)benzoic acid] was 40 nM; that for `O=C(O)c1cc2ccc(N3CC4C(/C=C/c5c(-c6c(Cl)cccc6Cl)noc5C5CC5)C4C3)cc2cn1` (stereo not shown) [Example 48] was 468 nM.
On the same count and under the same terms, the same measure for `O=C(O)c1cc(F)c2nc(N3CCC(/C=C/c4c(-c5ccccc5C(F)(F)F)noc4C4CC4)CC3)sc2c1` [Example 49]: 23 nM.
Still for that read-out and setting: the same measure for `N#Cc1ccc(N2CCC(/C=C/c3c(-c4c(Cl)cccc4Cl)noc3C3CC3)CC2)cc1` [Example 50, (E)-4-(4-(2-(5-cyclopropyl-3-(2,6-dichlorophenyl)isoxazol-4-yl)vinyl)piperidin-1-yl)benzonitrile]: 671 nM.
Take `O=C(O)c1cc(C(F)(F)F)c2cc(N3CC4C(/C=C/c5c(-c6c(Cl)cccc6Cl)noc5C5CC5)C4C3)ccc2n1` (stereo not shown) [Example 52]: the EC50 came out at 77 nM.
`O=C(O)c1ccc(N2CCC(/C=C/c3c(-c4c(Cl)cccc4Cl)noc3C3CC3)CC2)cc1Cl` [Example 53] returned an EC50 of 23 nM.
Same read-out and setting: the value for `O=C(O)C1(c2ccc(N3CCC(/C=C/c4c(-c5c(Cl)cccc5Cl)noc4C4CC4)CC3)cc2)CC1` [Example 59] was 214 nM; that for `Clc1cccc(Cl)c1-c1noc(C2CC2)c1/C=C/C1C2CN(c3ccc(-c4nn[nH]n4)cc3)CC12` (stereo not shown) [Example 61] was 41 nM; that for `FC(F)(F)Oc1ccccc1-c1noc(C2CC2)c1/C=C/C1CCN(c2ccc(-c3nn[nH]n3)cc2)CC1` [Example 62] was 20 nM.
Regarding `Clc1cccc(Cl)c1-c1noc(C2CC2)c1/C=C/C1CCN(c2cccc(-c3nn[nH]n3)c2)CC1` [Example 63], the EC50 was 216 nM.
The compound `Clc1cccc(Cl)c1-c1noc(C2CC2)c1/C=C/C1CCN(c2ccc(-c3nn[nH]n3)cn2)CC1` [Example 64] had a 50% effective concentration (EC50) of 30 nM. This EC50 lies about 7.2-fold lower than the previous one.
Same read-out and setting: the value for `Clc1cccc(Cl)c1-c1noc(C2CC2)c1/C=C/C1C2CN(c3ccc4nc(-c5nnn[nH]5)ccc4c3)CC12` (stereo not shown) [Example 65] was 189 nM.
For the compound `O=C(O)c1cc2ccc(N3CC4C(/C=C/c5c(-c6c(Cl)cccc6Cl)noc5C5CC5)C4C3)cc2nn1` (stereo not shown) [Example 66], the EC50 was found to be 227 nM. The EC50 values of the last two compounds are within 1.5-fold of each other.
Take `O=C(O)c1cc2ccc(N3CCC(/C=C/c4c(-c5ccccc5OC(F)(F)F)noc4C4CC4)CC3)cc2nn1` [Example 67]: the midpoint of the response, the EC50, lay at 1210 nM.
On the same count and under the same terms, the same measure for `Cn1cc(C(=O)O)c2ccc(N3CC4C(/C=C/c5c(-c6c(Cl)cccc6Cl)noc5C5CC5)C4C3)cc21` (stereo not shown) [Example 68]: 17 nM; for `O=C(O)c1cnc2cc(N3CCC(/C=C/c4c(-c5c(Cl)cccc5Cl)noc4C4CC4)CC3)ccc2c1` [Example 69]: 31 nM.
On the same count and under the same terms, the same measure for `O=C(O)c1cc(C(F)(F)F)c2cc(N3CC4C(/C=C/c5c(-c6c(Cl)cncc6Cl)noc5C5CC5)C4C3)ccc2n1` (stereo not shown) [Example 72]: 98 nM; for `O=C(O)c1cc2ccc(N3CC4C(/C=C/c5c(-c6c(Cl)cncc6Cl)noc5C5CC5)C4C3)cc2cn1` (stereo not shown) [Example 73]: 673 nM.
On the same count and under the same terms, the value for `O=C(O)c1cc(C(F)(F)F)c2cc(N3CC4C(/C=C/c5c(-c6ccccc6C(F)(F)F)noc5C5CC5)C4C3)ccc2n1` (stereo not shown) [Example 75] was 577 nM; that for `O=C(O)c1cc2ccc(N3CC4C(/C=C/c5c(-c6ccccc6C(F)(F)F)noc5C5CC5)C4C3)cc2cn1` (stereo not shown) [Example 76] was 413 nM; that for `O=C(O)c1cc(F)c2nc(N3CC4C(/C=C/c5c(-c6c(Cl)cncc6Cl)noc5C5CC5)C4C3)sc2c1` (stereo not shown) [Example 77] was 786 nM.
Turning to `O=C(O)c1ccc2nc(N3CC4C(/C=C/c5c(-c6c(Cl)cncc6Cl)noc5C5CC5)C4C3)sc2c1` (stereo not shown) [Example 78], the EC50 is 515 nM.
Still for that read-out and setting: the same measure for `O=C(O)c1ccc2nc(N3CC4C(/C=C/c5c(-c6c(Cl)cncc6Cl)noc5C5CC5)C4C3)ccc2c1` (stereo not shown) [Example 79]: 1160 nM; for `COc1cc(C(=O)O)nc2ccc(N3CC4C(/C=C/c5c(-c6c(Cl)cncc6Cl)noc5C5CC5)C4C3)cc12` (stereo not shown) [Example 80]: 38 nM; for `O=C(O)c1ccc2nc(N3CC4C(/C=C/c5c(-c6c(Cl)cccc6Cl)noc5C5CC5)C4C3)sc2n1` (stereo not shown) [Example 81]: 89 nM.
On to `O=C(O)c1ccc2cc(N3CC4C(/C=C/c5c(-c6c(Cl)cncc6Cl)noc5C5CC5)C4C3)ccc2n1` (stereo not shown) [Example 82], for which a half-maximal effect (EC50) was put at 267 nM.
Still for that read-out and setting: the value for `O=C(O)c1cc(C(F)(F)F)c2cc(N3CCC(/C=C/c4c(-c5c(Cl)cncc5Cl)noc4C4CC4)CC3)ccc2n1` [Example 83] was 42 nM; that for `O=C(O)c1cc(C(F)(F)F)c2cc(N3CCC(/C=C/c4c(-c5ccncc5Cl)noc4C4CC4)CC3)ccc2n1` [Example 84] was 215 nM.
The compound `O=C(O)c1ccc2nc(N3CCC(/C=C/c4c(-c5c(Cl)cncc5Cl)noc4C4CC4)CC3)sc2n1` [Example 85] displayed an EC50 of 156 nM.
On the same count and under the same terms, the value for `O=C(O)c1cnc(N2CC3C(/C=C/c4c(-c5c(Cl)cccc5Cl)noc4C4CC4)C3C2)s1` (stereo not shown) [Example 86] was 1010 nM; that for `O=C(O)c1ccc2nc(N3CCC(/C=C/c4c(-c5ccccc5C(F)(F)F)noc4C4CC4)CC3)sc2n1` [Example 87] was 26 nM.
Compound `COc1cc(C(=O)O)nc2ccc(N3CCC(/C=C/c4c(-c5c(Cl)cncc5Cl)noc4C4CC4)CC3)cc12` [Example 88] registered an EC50 of 5 nM. This EC50 lies about 5.2-fold lower than the previous one.
In turn, `Cn1cc(C(=O)O)c2ccc(N3CC4C(/C=C/c5c(-c6c(Cl)cncc6Cl)noc5C5CC5)C4C3)cc21` (stereo not shown) [Example 89] returned an EC50 of 31 nM.
`O=C(O)c1cc(OC(F)F)c2cc(N3CC4C(/C=C/c5c(-c6c(Cl)cncc6Cl)noc5C5CC5)C4C3)ccc2n1` (stereo not shown) [Example 91] registered an EC50 of 4 nM.
The same measure, in the same setting: the value for `O=C(O)c1cc(OC(F)F)c2cc(N3CCC(/C=C/c4c(-c5c(Cl)cncc5Cl)noc4C4CC4)CC3)ccc2n1` [Example 92] was 3 nM; that for `O=C(O)c1cccc2nc(N3CC4C(/C=C/c5c(-c6c(Cl)cncc6Cl)noc5C5CC5)C4C3)sc12` (stereo not shown) [Example 93] was 280 nM; that for `O=C(O)c1nsc2cc(N3CC4C(/C=C/c5c(-c6c(Cl)cncc6Cl)noc5C5CC5)C4C3)ccc12` (stereo not shown) [Example 95] was 108 nM.
Still for that read-out and setting: the same measure for `O=C(O)c1ccc(N2CC3C(/C=C/c4c(-c5c(Cl)cncc5Cl)noc4C4CC4)C3C2)cc1` (stereo not shown) [Example 96]: 66 nM.
`O=C(O)c1cc(OC(F)F)c2cc(N3CCC(/C=C/c4c(-c5cccnc5C(F)(F)F)noc4C4CC4)CC3)ccc2n1` [Example 98] came in with an EC50 of 3 nM.
For the compound `O=C(O)c1cc(OC(F)F)c2cc(N3CCC(/C=C/c4c(-c5ccccc5C(F)(F)F)noc4C4CC4)CC3)ccc2n1` [Example 99], the EC50 is 3 nM.
In turn, `COc1cc(C(=O)O)nc2ccc(N3CCC(/C=C/c4c(-c5ccccc5C(F)(F)F)noc4C4CC4)CC3)cc12` [Example 100] had an EC50 of 4 nM. The EC50 values of the last two compounds are within 1.5-fold of each other.
`O=C(O)c1ccc(N2CC3C(/C=C/c4c(-c5c(Cl)cncc5Cl)noc4C4CC4)C3C2)nc1` (stereo not shown) [Example 102]: the EC50 was found to be 1270 nM.
`O=C(O)c1cc2ccc(N3CCC(/C=C/c4c(-c5cccnc5C(F)(F)F)noc4C4CC4)CC3)cc2cn1` [Example 103] had an EC50 of 189 nM.
On to `O=C(O)c1nccc2cc(N3CCC(/C=C/c4c(-c5c(Cl)cncc5Cl)noc4C4CC4)CC3)ccc12` [Example 104], for which a half-maximal effect (EC50) was put at 219 nM.
Still for that read-out and setting: the value for `O=C(O)c1nccc2cc(N3CC4C(/C=C/c5c(-c6c(Cl)cncc6Cl)noc5C5CC5)C4C3)ccc12` (stereo not shown) [Example 105] was 310 nM.
Same read-out and setting: the value for `O=C(O)c1nccc2cc(N3CCC(/C=C/c4c(-c5ccccc5OC(F)(F)F)noc4C4CC4)CC3)ccc12` [Example 106] was 330 nM.

The same test, now with this note: HLE GAL-FXR EC50, Gal4-hFXR fusion reporter, HEK293 cells.
In the case of `Clc1cccc(Cl)c1-c1noc(C2CC2)c1/C=C/C1CCN(c2ccc(-c3nnn[nH]3)cc2)CC1` [Example 56, (E)-4-(2-(1-(4-(1H-Tetrazol-5-yl)phenyl)piperidin-4-yl)vinyl)-5-cyclopropyl-3-(2,6-dichlorophenyl)isoxazole], the EC50 stood at 3 nM.
Still for that read-out and setting: the same measure for `NC(=O)c1ccc(N2CC3C(/C=C/c4c(-c5c(Cl)cccc5Cl)noc4C4CC4)C3C2)cc1` (stereo not shown) [Example 70, (E)-4-(6-(2-(5-Cyclopropyl-3-(2,6-dichlorophenyl)isoxazol-4-yl)vinyl)-3-azabicyclo[3.1.0]hexan-3-yl)benzamide]: 377 nM.
The compound `CS(=O)(=O)NC(=O)c1ccc(N2CC3C(/C=C/c4c(-c5c(Cl)cccc5Cl)noc4C4CC4)C3C2)cc1` (stereo not shown) [Example 71, (E)-4-(6-(2-(5-Cyclopropyl-3-(2,6-dichlorophenyl)isoxazol-4-yl)vinyl)-3-azabicyclo[3.1.0]hexan-3-yl)-N-(methylsulfonyl)benzamide] came in with an EC50 of 83 nM.
